Experimental data reported in ChEMBL document CHEMBL3351449, “Inhibition of FAAH, TRPV1, and COX2 by NSAID-serotonin conjugates” (Bioorg Med Chem Lett, 2014).
Activity calls are given as the source filed them. The calls are words filed in the database; no cut-off is given here.

Experiments:
[1] = biological target: T1, Prostaglandin G/H synthase 2 (Homo sapiens) (UniProt P35354); assay: Inhibition of human recombinant COX2 assessed as inhibition of ADHP to fluorescent resorufin conversion measured as residual activity at 10 uM by fluorescence assay
T1 sequence (whole entry): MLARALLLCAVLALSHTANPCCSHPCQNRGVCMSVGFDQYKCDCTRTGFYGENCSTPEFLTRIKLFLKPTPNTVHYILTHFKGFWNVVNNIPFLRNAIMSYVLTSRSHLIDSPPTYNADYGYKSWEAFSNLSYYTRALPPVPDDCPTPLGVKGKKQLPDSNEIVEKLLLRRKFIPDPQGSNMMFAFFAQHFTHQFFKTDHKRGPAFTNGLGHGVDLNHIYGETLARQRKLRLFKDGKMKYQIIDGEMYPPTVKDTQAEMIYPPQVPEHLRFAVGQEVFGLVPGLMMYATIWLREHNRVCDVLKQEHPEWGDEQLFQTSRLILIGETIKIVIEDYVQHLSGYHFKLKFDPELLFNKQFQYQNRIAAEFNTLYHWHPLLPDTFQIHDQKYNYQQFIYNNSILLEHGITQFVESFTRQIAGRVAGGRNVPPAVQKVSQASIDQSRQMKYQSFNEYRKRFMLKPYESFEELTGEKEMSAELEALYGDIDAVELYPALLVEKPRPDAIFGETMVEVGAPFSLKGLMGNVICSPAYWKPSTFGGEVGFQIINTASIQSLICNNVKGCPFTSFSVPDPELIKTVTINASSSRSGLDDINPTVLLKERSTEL

[2] = biological target: T2, Fatty-acid amide hydrolase 1 (Homo sapiens) (UniProt O00519); assay: Inhibition of human recombinant FAAH using AMC arachidonoyl amide as substrate assessed as residual activity at 10 uM by fluorescence assay
T2 sequence (whole entry): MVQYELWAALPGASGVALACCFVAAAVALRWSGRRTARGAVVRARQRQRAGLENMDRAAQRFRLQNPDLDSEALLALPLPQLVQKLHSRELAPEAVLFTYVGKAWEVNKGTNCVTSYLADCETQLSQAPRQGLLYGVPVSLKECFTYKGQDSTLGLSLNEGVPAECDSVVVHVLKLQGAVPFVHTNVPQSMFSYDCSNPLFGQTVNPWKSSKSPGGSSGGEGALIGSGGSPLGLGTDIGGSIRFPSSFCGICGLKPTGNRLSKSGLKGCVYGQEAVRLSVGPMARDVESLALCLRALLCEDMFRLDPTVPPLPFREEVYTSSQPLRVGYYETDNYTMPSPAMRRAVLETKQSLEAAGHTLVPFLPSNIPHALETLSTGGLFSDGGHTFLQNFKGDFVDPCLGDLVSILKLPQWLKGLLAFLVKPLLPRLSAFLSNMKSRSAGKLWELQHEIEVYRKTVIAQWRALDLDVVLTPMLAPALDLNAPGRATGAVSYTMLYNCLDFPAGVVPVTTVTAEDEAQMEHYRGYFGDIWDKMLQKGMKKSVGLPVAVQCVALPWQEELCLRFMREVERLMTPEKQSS

[3] = biological target: T3, Transient receptor potential cation channel subfamily V member 1 (Homo sapiens, UniProt Q8NER1); assay: Inhibition of human TRPV1 overexpressed in BEAS-2B cells assessed as calcium flux after 30 mins by Fluo-4 AM fluorescence assay; assay type: cell-based
[4] = biological target: T3, Transient receptor potential cation channel subfamily V member 1; assay: Inhibition of human TRPV1 overexpressed in BEAS-2B cells assessed as residual activity at 250 uM after 30 mins by Fluo-4 AM fluorescence assay; assay type: cell-based
[5] = biological target: T3, Transient receptor potential cation channel subfamily V member 1; assay: Inhibition of human TRPV1 overexpressed in BEAS-2B cells assessed as residual activity at 50 uM after 30 mins by Fluo-4 AM fluorescence assay; assay type: cell-based
[6] = biological target: T4, Prostaglandin G/H synthase 2 (Homo sapiens, UniProt P35354); assay: Inhibition of human recombinant COX2 assessed as inhibition of ADHP to fluorescent resorufin conversion by fluorescence assay
T4 sequence (P35354 whole entry): T1 sequence (whole entry)

[7] = biological target: T5, Fatty-acid amide hydrolase 1 (Homo sapiens, UniProt O00519); assay: Inhibition of human recombinant FAAH using AMC arachidonoyl amide as substrate by fluorescence assay
T5 sequence (O00519 whole entry): T2 sequence (whole entry)

[8] = biological target: T3, Transient receptor potential cation channel subfamily V member 1; assay: Stimulation of human TRPV1 overexpressed in BEAS-2B cells at >10 uM after 30 mins by Fluo-4 AM fluorescence assay; assay type: cell-based
[9] = biological target: T3, Transient receptor potential cation channel subfamily V member 1; assay: Inhibition of human TRPV1 overexpressed in BEAS-2B cells at 10 uM after 30 mins by Fluo-4 AM fluorescence assay; assay type: cell-based
[10] = biological target: T2, Fatty-acid amide hydrolase 1 (Homo sapiens); assay: Inhibition of human recombinant FAAH using AMC arachidonoyl amide as substrate assessed as residual activity at 50 uM by fluorescence assay

T3 sequence (Q8NER1 whole entry): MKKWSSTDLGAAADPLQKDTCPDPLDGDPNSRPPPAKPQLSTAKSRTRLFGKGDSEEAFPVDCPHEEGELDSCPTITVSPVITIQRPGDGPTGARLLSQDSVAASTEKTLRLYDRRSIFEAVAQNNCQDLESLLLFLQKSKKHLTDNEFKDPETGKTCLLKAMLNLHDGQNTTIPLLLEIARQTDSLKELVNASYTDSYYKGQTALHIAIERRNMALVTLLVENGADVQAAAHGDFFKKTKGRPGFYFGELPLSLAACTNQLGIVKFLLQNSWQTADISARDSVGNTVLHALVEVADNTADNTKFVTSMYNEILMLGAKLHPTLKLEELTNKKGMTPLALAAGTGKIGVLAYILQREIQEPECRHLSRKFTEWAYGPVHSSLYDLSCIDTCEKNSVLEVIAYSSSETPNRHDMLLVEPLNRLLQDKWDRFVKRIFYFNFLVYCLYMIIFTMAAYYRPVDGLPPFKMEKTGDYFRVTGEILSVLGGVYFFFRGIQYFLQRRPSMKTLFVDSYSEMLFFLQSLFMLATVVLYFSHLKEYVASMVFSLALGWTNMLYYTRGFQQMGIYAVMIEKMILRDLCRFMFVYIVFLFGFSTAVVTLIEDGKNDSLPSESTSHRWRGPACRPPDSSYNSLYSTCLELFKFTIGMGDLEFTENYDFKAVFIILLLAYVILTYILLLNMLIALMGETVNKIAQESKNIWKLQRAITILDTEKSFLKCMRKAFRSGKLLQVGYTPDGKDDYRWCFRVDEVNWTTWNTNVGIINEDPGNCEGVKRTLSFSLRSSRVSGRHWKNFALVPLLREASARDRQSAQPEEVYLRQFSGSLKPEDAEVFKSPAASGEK

| SMILES | Activity [1] [%] | Activity [2] [%] | IC50 [3] [µM] | Activity [4] [%] | Activity [5] [%] | other results |
| --- | --- | --- | --- | --- | --- | --- |
| CC(=O)Oc1ccccc1C(=O)NCCc1c[nH]c2ccc(O)cc12 | 60 | 99 | 203 |  |  |  |
| CC(C(=O)NCCc1c[nH]c2ccc(O)cc12)c1cccc(C(=O)c2ccccc2)c1 (stereo unspecified) | 51 | 88 | 45 |  |  |  |
| CC(C)Cc1ccc(C(C)C(=O)O)cc1 (stereo unspecified) |  |  |  | 112 | 103 |  |
| CC(=O)Oc1ccccc1C(=O)O |  |  |  | 91 | 84 |  |
| CC(C(=O)O)c1ccc(-c2ccccc2)c(F)c1 (stereo unspecified) |  |  |  | 108 | 103 |  |
| O=C(c1ccccc1)c1ccc2n1CCC2C(=O)O (stereo unspecified) |  |  |  | 110 | 96 |  |
| COc1ccc2cc([C@H](C)C(=O)O)ccc2c1 |  |  |  | 109 | 107 |  |
| CC(C(=O)O)c1cccc(C(=O)c2ccccc2)c1 (stereo unspecified) |  |  |  | 108 | 103 |  |
| COc1ccc2c(c1)c(CC(=O)O)c(C)n2C(=O)c1ccc(Cl)cc1 |  |  |  | 82 | 98 |  |
| CCCCC/C=C\C/C=C\C/C=C\C/C=C\CCCC(=O)NCCc1c[nH]c2ccc(O)cc12 | 66 | 78 | 10 |  |  | IC50 [6]: 5 µM; IC50 [7]: 16 µM |
| O=C(NCCc1c[nH]c2ccc(O)cc12)c1ccccc1Nc1cccc(C(F)(F)F)c1 | 38 | 107 | 10 |  |  | Activity [8]: Active; inhibition [9]: 40% |
| O=C(NCCc1c[nH]c2ccc(O)cc12)c1ccccc1O | 51 | 101 | 70 |  |  |  |
| CC(C(=O)NCCc1c[nH]c2ccc(O)cc12)c1cccc(Oc2ccccc2)c1 (stereo unspecified) | 49 |  | 8 |  |  | IC50 [6]: 7 µM; Activity [10]: 105% |
| CC(C)Cc1ccc(C(C)C(=O)NCCc2c[nH]c3ccc(O)cc23)cc1 (stereo unspecified) | 42 | 75 | 6 |  |  | IC50 [6]: 10 µM; IC50 [7]: 5 µM |
| COc1ccc2cc([C@H](C)C(=O)NCCc3c[nH]c4ccc(O)cc34)ccc2c1 | 48 |  | 13 |  |  | IC50 [6]: 18 µM; Activity [10]: 73% |
| CC(C(=O)O)c1cccc(Oc2ccccc2)c1 (stereo unspecified) |  |  |  | 121 | 104 |  |
| O=C(O)c1ccccc1Nc1cccc(C(F)(F)F)c1 |  |  |  | 36 | 66 |  |
| O=C(c1ccccc1)c1ccc2n1CCC2C(=O)NCCc1c[nH]c2ccc(O)cc12 (stereo unspecified) | 43 | 98 | 70 |  |  |  |
| COc1ccc2c(c1)c(CC(=O)NCCc1c[nH]c3ccc(O)cc13)c(C)n2C(=O)c1ccc(Cl)cc1 | 7 | 94 | 48 |  |  |  |
| CC(C(=O)NCCc1c[nH]c2ccc(O)cc12)c1ccc(-c2ccccc2)c(F)c1 (stereo unspecified) | 38 | 85 | 9 |  |  | IC50 [6]: 8 µM; IC50 [7]: 15 µM |
| O=C(Cc1ccccc1Nc1c(Cl)cccc1Cl)NCCc1c[nH]c2ccc(O)cc12 | 43 | 98 | 19 |  |  |  |
| O=C(O)Cc1ccccc1Nc1c(Cl)cccc1Cl |  |  |  | 49 | 61 |  |
